Experimental data from PubChem BioAssay AID2060485 (Molecular Pharmacology Branch, DTP, NCI, 2025).

System: A375 multi-cell spheroids with HUVEC/MSC, viability
Experiment: Anticancer human tumor A375 cell line growth inhibition [GQUAD];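 note: spheroids exposed to compounds for seven days before readout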
Settings: for IC50: curve of first compound; for viability, T/C: stronger effect = lower value
How it was run: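 Viability of tumor cells grown as complex spheroids with endothelial and stromal cells, exposed to drug combinations. Top concentration at or near clinical Cmax (else 10 microM), diluted in half-log increments.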

[1] = second compound 0.0316 µM, first compound 0.0316 µM
[2] = second compound 0.0316 µM, first compound 0.316 µM
[3] = second compound 0.1 µM, first compound 0.0316 µM
[4] = second compound 0.1 µM, first compound 0.316 µM
[5] = second compound 0.316 µM, first compound 0.0316 µM
[6] = second compound 0.316 µM, first compound 0.316 µM
[7] = second compound 1 µM, first compound 0.0316 µM
[8] = second compound 1 µM, first compound 0.316 µM
[9] = second compound 3.16 µM, first compound 0.0316 µM
[10] = second compound 3.16 µM, first compound 0.316 µM
[11] = second compound 10 µM, first compound 0.0316 µM
[12] = second compound 10 µM, first compound 0.316 µM

Compound: Cn1ncnc1[C@H]1c2n[nH]c(=O)c3cc(F)cc(c23)N[C@@H]1c1ccc(F)cc1 + Cc1[nH]c2ccc(F)cc2c1-c1nc2c3cccnc3c3ncccc3c2[nH]1
- IC50 (second compound 0.0316 µM): > 0.316 µM
- IC50 (second compound 0.1 µM): > 0.316 µM
- IC50 (second compound 0.316 µM): > 0.316 µM
- IC50 (second compound 1 µM): > 0.316 µM
- IC50 (second compound 3.16 µM): > 0.316 µM
- IC50 (second compound 10 µM): > 0.316 µM
- viability, T/C (second compound 0.0316 µM, first compound 0.000999 µM): 106%
- viability, T/C (second compound 0.0316 µM, first compound 0.00316 µM): 98.1%
- viability, T/C (second compound 0.0316 µM, first compound 0.00999 µM): 108%
- viability, T/C [1]: 106%
- viability, T/C (second compound 0.0316 µM, first compound 0.0999 µM): 104%
- viability, T/C [2]: 97.4%
- viability, T/C (second compound 0.1 µM, first compound 0.000999 µM): 96.3%
- viability, T/C (second compound 0.1 µM, first compound 0.00316 µM): 97.5%
- viability, T/C (second compound 0.1 µM, first compound 0.00999 µM): 102%
- viability, T/C [3]: 103%
- viability, T/C (second compound 0.1 µM, first compound 0.0999 µM): 125%
- viability, T/C [4]: 114%
- viability, T/C (second compound 0.316 µM, first compound 0.000999 µM): 108%
- viability, T/C (second compound 0.316 µM, first compound 0.00316 µM): 105%
- viability, T/C (second compound 0.316 µM, first compound 0.00999 µM): 106%
- viability, T/C [5]: 112%
- viability, T/C (second compound 0.316 µM, first compound 0.0999 µM): 131%
- viability, T/C [6]: 121%
- viability, T/C (second compound 1 µM, first compound 0.000999 µM): 100%
- viability, T/C (second compound 1 µM, first compound 0.00316 µM): 98%
- viability, T/C (second compound 1 µM, first compound 0.00999 µM): 115%
- viability, T/C [7]: 137%
- viability, T/C (second compound 1 µM, first compound 0.0999 µM): 138%
- viability, T/C [8]: 116%
- viability, T/C (second compound 3.16 µM, first compound 0.000999 µM): 83.7%
- viability, T/C (second compound 3.16 µM, first compound 0.00316 µM): 93.6%
- viability, T/C (second compound 3.16 µM, first compound 0.00999 µM): 92.3%
- viability, T/C [9]: 78.3%
- viability, T/C (second compound 3.16 µM, first compound 0.0999 µM): 80.7%
- viability, T/C [10]: 72%
- viability, T/C (second compound 10 µM, first compound 0.000999 µM): 106%
- viability, T/C (second compound 10 µM, first compound 0.00316 µM): 95.7%
- viability, T/C (second compound 10 µM, first compound 0.00999 µM): 112%
- viability, T/C [11]: 101%
- viability, T/C (second compound 10 µM, first compound 0.0999 µM): 96.8%
- viability, T/C [12]: 90.9%

Compound: O=C(c1cc(Cc2n[nH]c(=O)c3ccccc23)ccc1F)N1CCN(C(=O)C2CC2)CC1 + Cc1[nH]c2ccc(F)cc2c1-c1nc2c3cccnc3c3ncccc3c2[nH]1
- IC50 (second compound 0.0316 µM): > 10 µM
- IC50 (second compound 0.1 µM): > 10 µM
- IC50 (second compound 0.316 µM): > 10 µM
- IC50 (second compound 1 µM): > 10 µM
- IC50 (second compound 3.16 µM): > 10 µM
- IC50 (second compound 10 µM): > 10 µM
- viability, T/C [1]: 100%
- viability, T/C (second compound 0.0316 µM, first compound 0.1 µM): 88.9%
- viability, T/C [2]: 86.7%
- viability, T/C (second compound 0.0316 µM, first compound 1 µM): 102%
- viability, T/C (second compound 0.0316 µM, first compound 3.16 µM): 110%
- viability, T/C (second compound 0.0316 µM, first compound 10 µM): 80.6%
- viability, T/C [3]: 101%
- viability, T/C (second compound 0.1 µM, first compound 0.1 µM): 97.4%
- viability, T/C [4]: 86.7%
- viability, T/C (second compound 0.1 µM, first compound 1 µM): 103%
- viability, T/C (second compound 0.1 µM, first compound 3.16 µM): 96.1%
- viability, T/C (second compound 0.1 µM, first compound 10 µM): 91.5%
- viability, T/C [5]: 92.2%
- viability, T/C (second compound 0.316 µM, first compound 0.1 µM): 105%
- viability, T/C [6]: 105%
- viability, T/C (second compound 0.316 µM, first compound 1 µM): 94.8%
- viability, T/C (second compound 0.316 µM, first compound 3.16 µM): 111%
- viability, T/C (second compound 0.316 µM, first compound 10 µM): 83%
- viability, T/C [7]: 96.2%
- viability, T/C (second compound 1 µM, first compound 0.1 µM): 95.5%
- viability, T/C [8]: 102%
- viability, T/C (second compound 1 µM, first compound 1 µM): 102%
- viability, T/C (second compound 1 µM, first compound 3.16 µM): 117%
- viability, T/C (second compound 1 µM, first compound 10 µM): 74.7%
- viability, T/C [9]: 80.5%
- viability, T/C (second compound 3.16 µM, first compound 0.1 µM): 78.7%
- viability, T/C [10]: 84.3%
- viability, T/C (second compound 3.16 µM, first compound 1 µM): 73.4%
- viability, T/C (second compound 3.16 µM, first compound 3.16 µM): 74.7%
- viability, T/C (second compound 3.16 µM, first compound 10 µM): 61.6%
- viability, T/C [11]: 94.1%
- viability, T/C (second compound 10 µM, first compound 0.1 µM): 90.5%
- viability, T/C [12]: 105%
- viability, T/C (second compound 10 µM, first compound 1 µM): 90.8%
- viability, T/C (second compound 10 µM, first compound 3.16 µM): 91.3%
- viability, T/C (second compound 10 µM, first compound 10 µM): 72.1%
